Laboratory results as given in PubChem BioAssay AID248 (DTP/NCI, 2004).
Where “and” joins values, the source holds several entries; their conditions need not be identical. Identical values can stand only once. Toxic doses and inconclusive results are not listed. Cut-off read from the data, not from the text of the source: active = T/C of 150% or more; inactive = T/C below 125%.

Tested on: L1210 leukemia ip in BDF1 mice, survival T/C
Assay: NCI In Vivo Anticancer Drug Screen. Data for tumor model L1210 Leukemia (intraperitoneal) in B6D2F1 (BDF1) mice
Conditions: endpoint: mean survival time, higher = longer survival
Procedure, shortened: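 Each compound was tested against a transplantable tumor grown in mice. The endpoint was survival, with treated animals benchmarked against vehicle controls as a simple ratio.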

[1] = dose: 100.0 mg/kg/injection, schedule: Q01DX001 (ip), vehicle: saline
[2] = dose: 200.0 mg/kg/injection, schedule: Q01DX001 (ip), vehicle: saline
[3] = dose: 400.0 mg/kg/injection, schedule: Q01DX001 (ip), vehicle: saline
[4] = dose: 100.0 mg/kg/injection, schedule: Q01DX009 (ip), vehicle: saline with Tween-80
[5] = dose: 200.0 mg/kg/injection, schedule: Q01DX009 (ip), vehicle: saline with Tween-80
[6] = dose: 400.0 mg/kg/injection, schedule: Q01DX009 (ip), vehicle: saline with Tween-80
[7] = dose: 100.0 mg/kg/injection, schedule: Q01DX009 (ip), vehicle: saline
[8] = dose: 100.0 mg/kg/injection, schedule: Q04DX003 (ip), vehicle: saline
[9] = dose: 100.0 mg/kg/injection, schedule: Q04DX003 (ip), vehicle: saline with Tween-80
[10] = dose: 200.0 mg/kg/injection, schedule: Q04DX003 (ip), vehicle: saline with Tween-80
[11] = dose: 400.0 mg/kg/injection, schedule: Q04DX003 (ip), vehicle: saline with Tween-80
[12] = dose: 50.0 mg/kg/injection, schedule: Q01DX009 (ip), vehicle: saline with Tween-80

Measured: T/C

Cc1c2cc3c(cc2cc2c4cc5c(cc4cc[n+]12)OCO5)OCO3 (tested in a mixture with another compound)
inactive: dose: 5.5 mg/kg/injection, schedule: Q04DX003 (ip), vehicle: saline 110 % of control | dose: 6.25 mg/kg/injection, schedule: Q01DX009 (ip), vehicle: saline 110 % of control | dose: 8.3 mg/kg/injection, schedule: Q04DX003 (ip), vehicle: saline 108 % of control | dose: 12.5 mg/kg/injection, schedule: Q01DX009 (ip), vehicle: saline 89 % of control | dose: 12.5 mg/kg/injection, schedule: Q04DX003 (ip), vehicle: saline 98 % of control | dose: 18.7 mg/kg/injection, schedule: Q04DX003 (ip), vehicle: saline 93 % of control

CCc1ccc2c(c1)N(CCCN(CCCl)CCCl)c1ccccc1S2
inactive: dose: 1.56 mg/kg/injection, schedule: Q01DX009 (ip), vehicle: saline with Tween-80 107 % of control | dose: 3.12 mg/kg/injection, schedule: Q01DX001 (ip), vehicle: saline with Tween-80 97 % of control | dose: 3.12 mg/kg/injection, schedule: Q01DX009 (ip), vehicle: saline with Tween-80 102 % of control | dose: 6.25 mg/kg/injection, schedule: Q01DX001 (ip), vehicle: saline with Tween-80 97 % of control | dose: 6.25 mg/kg/injection, schedule: Q01DX009 (ip), vehicle: saline with Tween-80 100 % of control | dose: 6.25 mg/kg/injection, schedule: Q04DX003 (ip), vehicle: saline with Tween-80 110 % of control | dose: 12.5 mg/kg/injection, schedule: Q01DX001 (ip), vehicle: saline with Tween-80 111 % of control | dose: 12.5 mg/kg/injection, schedule: Q01DX009 (ip), vehicle: saline with Tween-80 102 % of control | dose: 12.5 mg/kg/injection, schedule: Q04DX003 (ip), vehicle: saline with Tween-80 111 % of control | dose: 25.0 mg/kg/injection, schedule: Q04DX003 (ip), vehicle: saline with Tween-80 111 % of control | dose: 50.0 mg/kg/injection, schedule: Q04DX003 (ip), vehicle: saline with Tween-80 111 % of control

CC[CH2][Sn]([Cl])([Cl])[CH2]CC
inactive: dose: 0.13 mg/kg/injection, schedule: Q01DX009 (ip), vehicle: saline 98 % of control | dose: 0.25 mg/kg/injection, schedule: Q01DX009 (ip), vehicle: saline 112 % of control | dose: 0.5 mg/kg/injection, schedule: Q01DX009 (ip), vehicle: saline 105 % of control and 108 % of control | dose: 1.0 mg/kg/injection, schedule: Q01DX009 (ip), vehicle: saline 101 % of control | dose: 2.0 mg/kg/injection, schedule: Q01DX009 (ip), vehicle: saline 101 % of control | dose: 4.0 mg/kg/injection, schedule: Q01DX009 (ip), vehicle: saline 104 % of control

C=CCc1ccc(OCCOCCN(CC=C(C)C)CC=C(C)C)c(OC)c1
inactive: dose: 12.5 mg/kg/injection, schedule: Q01DX009 (ip), vehicle: Klucel (hydroxypropylcellulose) (HPC) 100 % of control | dose: 12.5 mg/kg/injection, schedule: Q04DX003 (ip), vehicle: Klucel (hydroxypropylcellulose) (HPC) 96 % of control | dose: 25.0 mg/kg/injection, schedule: Q01DX009 (ip), vehicle: Klucel (hydroxypropylcellulose) (HPC) 97 % of control | dose: 25.0 mg/kg/injection, schedule: Q04DX003 (ip), vehicle: Klucel (hydroxypropylcellulose) (HPC) 98 % of control | dose: 50.0 mg/kg/injection, schedule: Q01DX009 (ip), vehicle: Klucel (hydroxypropylcellulose) (HPC) 95 % of control | dose: 50.0 mg/kg/injection, schedule: Q04DX003 (ip), vehicle: Klucel (hydroxypropylcellulose) (HPC) 88 % of control

COC1OCC2OC(C)(C)OC2C1OS(C)(=O)=O (stereo unspecified)
inactive: [1] 107 % of control | [2] 112 % of control | [3] 97 % of control

[O-]/[N+](=N/O)c1ccccc1
inactive: [1] 92 % of control

O=C1OC(c2ccccc2)(c2ccccc2)c2cccc3cccc1c23
inactive: [4] 101 % of control | [5] 95 % of control | [6] 91 % of control

CC(C)(Br)C1CC(=O)C(C)(Br)C(Br)C1 (stereo unspecified)
inactive: [1] 98 % of control | [2] 101 % of control | [3] 101 % of control

O=c1[nH]c(/C=C/c2ccc(Cl)cc2)nc(O)c1-c1ccc(Cl)cc1
inactive: [1] 104 % of control | dose: 100.0 mg/kg/injection, schedule: Q04DX003 (ip), vehicle: Klucel (hydroxypropylcellulose) (HPC) 102 % of control | [2] 98 % of control | dose: 200.0 mg/kg/injection, schedule: Q04DX003 (ip), vehicle: Klucel (hydroxypropylcellulose) (HPC) 96 % of control | [3] 93 % of control | dose: 400.0 mg/kg/injection, schedule: Q04DX003 (ip), vehicle: Klucel (hydroxypropylcellulose) (HPC) 98 % of control

CCCCNC(C)(C)C(SSS(=O)(=O)O)c1ccc(Cl)cc1 (stereo unspecified)
inactive: [4] 96 % of control | [5] 103 % of control | [6] 92 % of control

CC(C)(CCCl)NCc1ccccc1
inactive: dose: 25.0 mg/kg/injection, schedule: Q01DX009 (ip), vehicle: saline 101 % of control | dose: 50.0 mg/kg/injection, schedule: Q01DX009 (ip), vehicle: saline 104 % of control | [7] 88 % of control | [8] 99 % of control

CCOC(=O)Nc1ccc([N+](=O)[O-])cc1[N+](=O)[O-]
inactive: dose: 100.0 mg/kg/injection, schedule: Q01DX001 (ip), vehicle: saline with Tween-80 101 % of control | [9] 100 % of control | dose: 200.0 mg/kg/injection, schedule: Q01DX001 (ip), vehicle: saline with Tween-80 98 % of control | [10] 93 % of control | dose: 400.0 mg/kg/injection, schedule: Q01DX001 (ip), vehicle: saline with Tween-80 95 % of control | [11] 98 % of control

COc1ccc(C)cc1NC(=O)OCCOc1ccc([N+](=O)[O-])cc1
inactive: [12] 93 % of control | [4] 97 % of control | [5] 93 % of control

CCCCCCCCCCCCCCC[n+]1cccc(C#N)c1
inactive: dose: 5.0 mg/kg/injection, schedule: Q01DX009 (ip), vehicle: saline 104 % of control | dose: 10.0 mg/kg/injection, schedule: Q01DX001 (ip), vehicle: saline 87 % of control | dose: 10.0 mg/kg/injection, schedule: Q01DX009 (ip), vehicle: saline 96 % of control | dose: 10.0 mg/kg/injection, schedule: Q04DX003 (ip), vehicle: saline 90 % of control | dose: 20.0 mg/kg/injection, schedule: Q01DX001 (ip), vehicle: saline 95 % of control and 86 % of control | dose: 20.0 mg/kg/injection, schedule: Q01DX009 (ip), vehicle: saline 107 % of control | dose: 20.0 mg/kg/injection, schedule: Q04DX003 (ip), vehicle: saline 95 % of control | dose: 40.0 mg/kg/injection, schedule: Q01DX001 (ip), vehicle: saline 101 % of control and 90 % of control | dose: 40.0 mg/kg/injection, schedule: Q04DX003 (ip), vehicle: saline 94 % of control

C=Cc1ccc(N)cc1
inactive: [12] 90 % of control | [9] 87 % of control | [5] 93 % of control | [10] 90 % of control

CC1=CCC(=O)O1
inactive: dose: 50.0 mg/kg/injection, schedule: Q01DX001 (ip), vehicle: saline 100 % of control | [12] 94 % of control | [1] 100 % of control | [4] 97 % of control | [2] 97 % of control | [5] 94 % of control | [3] 97 % of control

CC(=O)Nc1ccc2c(c1)/C(=N/O)c1ccccc1-2
inactive: [8] 97 % of control | dose: 200.0 mg/kg/injection, schedule: Q04DX003 (ip), vehicle: saline 89 % of control | dose: 400.0 mg/kg/injection, schedule: Q04DX003 (ip), vehicle: saline 94 % of control

CCCCn1c(=O)cc(C(=O)O)c2ccccc21
inactive: [9] 101 % of control | [10] 101 % of control | [11] 95 % of control

COc1ccc(C(=O)N/N=C/c2ccc(NC(C)=O)cc2)cc1
inactive: dose: 100.0 mg/kg/injection, schedule: Q04DX002 (ip), vehicle: Klucel (hydroxypropylcellulose) (HPC) 100 % of control | dose: 200.0 mg/kg/injection, schedule: Q04DX002 (ip), vehicle: Klucel (hydroxypropylcellulose) (HPC) 96 % of control | dose: 400.0 mg/kg/injection, schedule: Q04DX002 (ip), vehicle: Klucel (hydroxypropylcellulose) (HPC) 115 % of control

O=NC1C(Cl)C2CC1C1c3ccccc3C21 (stereo unspecified)
inactive: [1] 95 % of control | [7] 89 % of control | [2] 104 % of control | dose: 200.0 mg/kg/injection, schedule: Q01DX009 (ip), vehicle: saline 93 % of control | [3] 93 % of control | dose: 400.0 mg/kg/injection, schedule: Q01DX009 (ip), vehicle: saline 89 % of control

CCOC(=O)C1=NN(c2ccccc2)C(=O)C1N=Nc1ccc(S(N)(=O)=O)cc1 (stereo unspecified)
inactive: [1] 95 % of control | [2] 93 % of control | [3] 93 % of control

O=C(O)c1ccc(OCCCOc2ccccc2)c(Cl)c1
inactive: [9] 96 % of control | [10] 93 % of control
